Results reported in ChEMBL document CHEMBL6078655, “Engineering of Novel Analogues That Are More Receptor-Selective and Potent than the Native Hormone, Insulin-like Peptide 5 (INSL5)” (J Med Chem, 2024).
Active and inactive are the calls of the source. No cut-off for these calls is given here. Where a SMILES comes first, the peptide text is derived from it. Bridges are numbered along the chain shown (N, C = ends). Roman numbers before positions name the chains, in order. [ ]: non-standard residue; d: D form. 1Nal = N[C@@H](Cc1cccc2ccccc12)C(=O)O; 2Nal = N[C@@H](Cc1ccc2ccccc2c1)C(=O)O; Agb = N=C(N)NCC[C@H](N)C(=O)O

How the values were obtained:
Relaxin-3 receptor 2 [1] = molecular target: T1, Relaxin-3 receptor 2 (Homo sapiens, UniProt Q8TDU9); test: Agonist activity at RXFP4 in HEK293T cells assessed as beta-arrestin2 recruitment pretreated with coelenterazine for 10 mins followed by compound addition by BRET assay; format: functional, cell-based
Relaxin-3 receptor 2 [2] = molecular target: T1, Relaxin-3 receptor 2; test: Agonist activity at RXFP4 (unknown origin) expressed in CHO cells co-transfected with pCRE-galactosidase reporter plasmid assessed as inhibition of forskolin-induced cAMP accumulation incubated for 6 hrs by reporter gene assay; format: functional, cell-based
[3] = Selectivity index, ratio of Ki for binding affinity to SmBit-tagged RXFP3 (unknown origin) expressed in HEK cells assessed as inhibition constant to Ki for binding affinity to LgBiT-tagged RXFP4 (unknown origin) expressed in HEK cells assessed as inhibition constant; format: cell-based
Relaxin-3 receptor 2 [4] = molecular target: T1, Relaxin-3 receptor 2; test: Binding affinity to LgBiT-tagged RXFP4 (unknown origin) expressed in HEK cells assessed as inhibition constant incubated for 1 hr by NanoBiT assay; format: cell-based
Relaxin-3 receptor 1 [5] = molecular target: T2, Relaxin-3 receptor 1 (Homo sapiens, UniProt Q9NSD7); test: (§1) Agonist activity at RXFP3 (unknown origin) expressed in CHO cells co-transfected with pCRE-galactosidase reporter plasmid assessed as inhibition of forskolin-induced cAMP accumulation incubated for 6 hrs by reporter gene assay; format: functional, cell-based
T2 sequence (Q9NSD7 whole entry): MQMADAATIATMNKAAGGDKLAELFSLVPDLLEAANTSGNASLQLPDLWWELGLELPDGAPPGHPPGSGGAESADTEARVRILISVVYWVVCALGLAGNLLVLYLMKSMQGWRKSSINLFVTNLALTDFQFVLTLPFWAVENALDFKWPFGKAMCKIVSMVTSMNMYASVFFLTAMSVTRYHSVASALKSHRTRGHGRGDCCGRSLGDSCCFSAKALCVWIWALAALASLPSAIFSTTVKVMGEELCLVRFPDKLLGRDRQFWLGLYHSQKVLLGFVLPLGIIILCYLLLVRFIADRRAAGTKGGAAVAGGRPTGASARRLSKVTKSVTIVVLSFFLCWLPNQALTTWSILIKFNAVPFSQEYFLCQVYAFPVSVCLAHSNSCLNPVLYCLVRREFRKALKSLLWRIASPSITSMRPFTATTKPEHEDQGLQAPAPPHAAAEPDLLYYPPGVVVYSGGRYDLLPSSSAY

Relaxin-3 receptor 1 [6] = molecular target: T2, Relaxin-3 receptor 1; test: Binding affinity to SmBit-tagged RXFP3 (unknown origin) expressed in HEK cells assessed as inhibition constant incubated for 1 hr by NanoBiT assay; format: cell-based; details: read-out: Ki
[7] = molecular target: T3, Relaxin-3 receptor 1 (Homo sapiens) (UniProt Q9NSD7); test: as §1; format: functional, cell-based
T3 sequence (whole entry): T2 sequence (Q9NSD7 whole entry)

T1 sequence (Q8TDU9 whole entry): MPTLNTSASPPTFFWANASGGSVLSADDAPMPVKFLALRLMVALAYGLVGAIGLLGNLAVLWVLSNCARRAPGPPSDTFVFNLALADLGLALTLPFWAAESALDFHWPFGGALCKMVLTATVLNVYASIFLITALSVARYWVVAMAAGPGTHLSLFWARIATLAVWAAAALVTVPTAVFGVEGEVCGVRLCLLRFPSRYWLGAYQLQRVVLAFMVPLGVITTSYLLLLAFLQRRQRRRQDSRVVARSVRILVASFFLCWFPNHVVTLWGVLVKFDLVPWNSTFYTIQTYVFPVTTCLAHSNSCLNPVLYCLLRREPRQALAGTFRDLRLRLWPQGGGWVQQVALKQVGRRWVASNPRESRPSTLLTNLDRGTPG

Row | SMILES | EC50 (Relaxin-3 receptor 2 [1]) [nM] | EC50 (Relaxin-3 receptor 2 [2]; read-out: EC50) [nM] | Ratio Ki [3] | Ki (Relaxin-3 receptor 2 [4]) [nM] | EC50 (Relaxin-3 receptor 1 [5]; read-out: EC50) [µM] | Ki (Relaxin-3 receptor 1 [6]) [nM] | Activity (Relaxin-3 receptor 2 [1]) | EC50 (Relaxin-3 receptor 2 [2]; read-out: pEC50 (converted)) [nM] | Activity (Relaxin-3 receptor 2 [2]) | EC50 (Relaxin-3 receptor 1 [5]; cho, read-out: EC50) [µM] | EC50 (Relaxin-3 receptor 1 [5]; read-out: pEC50 (converted)) [µM] | Activity [7]
1 | CC[C@H](C)[C@@H]1NC(=O)[C@H](Cc2ccc(O)cc2)NC(=O)[C@H]([C@@H](C)CC)NC(=O)[C@H](C(C)C)NC(=O)[C@H]([C@@H](C)O)NC(=O)[C@H](CCCNC(=N)N)NC(=O)[C@H]([C@@H](C)CC)NC(=O)[C@H](Cc2ccc(O)cc2)NC(=O)[C@H](CCC(=O)O)NC(=O)[C@H](CC(C)C)NC(=O)CNC(=O)[C@@H](N)CSSC[C@H](N)C(=O)N[C@@H]([C@@H](C)O)C(=O)N[C@@H](CC(=O)O)C(=O)NCC(=O)N[C@@H](CS)C(=O)N[C@H](CO)C(=O)N[C@@H](CCSC)C(=O)N[C@@H](CCCCN)C(=O)N[C@@H](CC(=O)O)C(=O)N[C@@H](CC(C)C)C(=O)N[C@@H](CO)C(=O)N[C@@H](C)C(=O)N[C@@H](CC(C)C)C(=O)N[C@H](C(=O)O)CSSC[C@@H](C(=O)NCC(=O)NCC(=O)N[C@@H](CO)C(=O)N[C@@H](CCCNC(=N)N)C(=O)N[C@@H](Cc2c[nH]c3ccccc23)C(=O)O)NC1=O | 22.4 | 1.17 | 263 | 2.29 | 4.79 | 603 | – | – | – | – | – | –
2 | CC[C@H](C)[C@@H]1NC(=O)[C@H](Cc2ccc(O)cc2)NC(=O)[C@H]([C@@H](C)CC)NC(=O)[C@H](C(C)C)NC(=O)[C@H]([C@@H](C)O)NC(=O)[C@H](CCCNC(=N)N)NC(=O)[C@H]([C@@H](C)CC)NC(=O)[C@H](Cc2ccc(O)cc2)NC(=O)[C@H](CCC(=O)O)NC(=O)[C@H](CC(C)C)NC(=O)CNC(=O)[C@@H](NC(=O)[C@H](CC(C)C)NC(=O)[C@H](CCCNC(=N)N)NC(=O)[C@@H](NC(=O)[C@H](CO)NC(=O)[C@H](CCC(=O)O)NC(=O)[C@@H](N)CCCCN)C(C)C)CSSC[C@H](N)C(=O)N[C@@H]([C@@H](C)O)C(=O)N[C@@H](CC(=O)O)C(=O)NCC(=O)N[C@@H](C)C(=O)N[C@@H](CO)C(=O)N[C@@H](CCSC)C(=O)N[C@@H](CCCCN)C(=O)N[C@@H](CC(=O)O)C(=O)N[C@@H](CC(C)C)C(=O)N[C@@H](CO)C(=O)N[C@@H](C)C(=O)N[C@@H](CC(C)C)C(=O)N[C@H](C(=O)O)CSSC[C@@H](C(=O)N[C@@H](C)C(=O)N[C@@H](CO)C(=O)N[C@@H](CO)C(=O)N[C@@H](CCNC(=N)N)C(=O)N[C@@H](Cc2ccc3ccccc3c2)C(=O)O)NC1=O (I: H-KESVRLCGLEYIRTVIYICASS[Agb][2Nal]-OH / II: H-CTDGASMKDLSALC-OH; disulfide I:7-II:1, I:19-II:14) | – | > 100000 | – | 3.47 | – | – | inactive | > 10000 | – | – | – | –
3 | CC[C@H](C)[C@@H]1NC(=O)[C@H](Cc2ccc(O)cc2)NC(=O)[C@H]([C@@H](C)CC)NC(=O)[C@H](C(C)C)NC(=O)[C@H]([C@@H](C)O)NC(=O)[C@H](CCCNC(=N)N)NC(=O)[C@H]([C@@H](C)CC)NC(=O)[C@H](Cc2ccc(O)cc2)NC(=O)[C@H](CCC(=O)O)NC(=O)[C@H](CC(C)C)NC(=O)CNC(=O)[C@@H](N)CSSC[C@H](N)C(=O)N[C@@H]([C@@H](C)O)C(=O)N[C@@H](CC(=O)O)C(=O)NCC(=O)N[C@@H](C)C(=O)N[C@@H](CO)C(=O)N[C@@H](CCSC)C(=O)N[C@@H](CCCCN)C(=O)N[C@@H](CC(=O)O)C(=O)N[C@@H](CC(C)C)C(=O)N[C@@H](CO)C(=O)N[C@@H](C)C(=O)N[C@@H](CC(C)C)C(=O)N[C@H](C(=O)O)CSSC[C@@H](C(=O)N[C@@H](C)C(=O)N[C@@H](CO)C(=O)N[C@@H](CO)C(=O)N[C@@H](CCNC(=N)N)C(=O)N[C@@H](Cc2cccc3ccccc23)C(=O)O)NC1=O (I: H-CGLEYIRTVIYICASS[Agb][1Nal]-OH / II: H-CTDGASMKDLSALC-OH; disulfide I:1-II:1, I:13-II:14) | – | 9.12 | – | 3.09 | – | – | – | – | inactive | – | – | –
4 | CC[C@H](C)[C@@H]1NC(=O)[C@H](Cc2ccc(O)cc2)NC(=O)[C@H]([C@@H](C)CC)NC(=O)[C@H](C(C)C)NC(=O)[C@H]([C@@H](C)O)NC(=O)[C@H](CCCNC(=N)N)NC(=O)[C@H]([C@@H](C)CC)NC(=O)[C@H](Cc2ccc(O)cc2)NC(=O)[C@H](CCC(=O)O)NC(=O)[C@H](CC(C)C)NC(=O)CNC(=O)[C@@H](N)CSSC[C@H](N)C(=O)N[C@@H]([C@@H](C)O)C(=O)N[C@@H](CC(=O)O)C(=O)NCC(=O)N[C@@H](CS)C(=O)N[C@H](CO)C(=O)N[C@@H](CCSC)C(=O)N[C@@H](CCCCN)C(=O)N[C@@H](CC(=O)O)C(=O)N[C@@H](CC(C)C)C(=O)N[C@@H](CO)C(=O)N[C@@H](C)C(=O)N[C@@H](CC(C)C)C(=O)N[C@H](C(=O)O)CSSC[C@@H](C(=O)NCC(=O)N[C@@H](C)C(=O)N[C@@H](CO)C(=O)N[C@@H](CCCNC(=N)N)C(=O)N[C@@H](Cc2c[nH]c3ccccc23)C(=O)O)NC1=O | – | 1.66 | 16.2 | 4.68 | 0.155 | 75.9 | – | – | – | – | – | –
5 | CC[C@H](C)[C@@H]1NC(=O)[C@H](Cc2ccc(O)cc2)NC(=O)[C@H]([C@@H](C)CC)NC(=O)[C@H](C(C)C)NC(=O)[C@H]([C@@H](C)O)NC(=O)[C@H](CCCNC(=N)N)NC(=O)[C@H]([C@@H](C)CC)NC(=O)[C@H](Cc2ccc(O)cc2)NC(=O)[C@H](CCC(=O)O)NC(=O)[C@H](CC(C)C)NC(=O)CNC(=O)[C@@H](N)CSSC[C@H](N)C(=O)N[C@@H]([C@@H](C)O)C(=O)N[C@@H](CC(=O)O)C(=O)NCC(=O)N[C@@H](CS)C(=O)N[C@H](CO)C(=O)N[C@@H](CCSC)C(=O)N[C@@H](CCCCN)C(=O)N[C@@H](CC(=O)O)C(=O)N[C@@H](CC(C)C)C(=O)N[C@@H](CO)C(=O)N[C@@H](C)C(=O)N[C@@H](CC(C)C)C(=O)N[C@H](C(=O)O)CSSC[C@@H](C(=O)NCC(=O)N[C@@H](CO)C(=O)N[C@@H](CO)C(=O)N[C@@H](CCCNC(=N)N)C(=O)N[C@@H](Cc2c[nH]c3ccccc23)C(=O)O)NC1=O | – | 7.76 | 23.4 | 18.2 | – | 427 | – | – | – | > 10 | > 10 | –
6 | CC[C@H](C)[C@@H]1NC(=O)[C@H](Cc2ccc(O)cc2)NC(=O)[C@H]([C@@H](C)CC)NC(=O)[C@H](C(C)C)NC(=O)[C@H]([C@@H](C)O)NC(=O)[C@H](CCCNC(=N)N)NC(=O)[C@H]([C@@H](C)CC)NC(=O)[C@H](Cc2ccc(O)cc2)NC(=O)[C@H](CCC(=O)O)NC(=O)[C@H](CC(C)C)NC(=O)CNC(=O)[C@@H](NC(=O)[C@H](CC(C)C)NC(=O)[C@H](CCCNC(=N)N)NC(=O)[C@@H](NC(=O)[C@H](CO)NC(=O)[C@H](CCC(=O)O)NC(=O)[C@@H](N)CCCCN)C(C)C)CSSC[C@H](N)C(=O)N[C@@H]([C@@H](C)O)C(=O)N[C@@H](CC(=O)O)C(=O)NCC(=O)N[C@@H](C)C(=O)N[C@@H](CO)C(=O)N[C@@H](CCSC)C(=O)N[C@@H](CCCCN)C(=O)N[C@@H](CC(=O)O)C(=O)N[C@@H](CC(C)C)C(=O)N[C@@H](CO)C(=O)N[C@@H](C)C(=O)N[C@@H](CC(C)C)C(=O)N[C@H](C(=O)O)CSSC[C@@H](C(=O)N[C@@H](C)C(=O)N[C@@H](CO)C(=O)N[C@@H](CO)C(=O)N[C@@H](CCNC(=N)N)C(=O)N[C@@H](Cc2c[nH]c3ccccc23)C(=O)O)NC1=O (I: H-KESVRLCGLEYIRTVIYICASS[Agb]W-OH / II: H-CTDGASMKDLSALC-OH; disulfide I:7-II:1, I:19-II:14) | – | > 100000 | – | 14.1 | – | – | – | > 10000 | – | – | – | –
7 | CC[C@H](C)[C@@H]1NC(=O)[C@H](Cc2ccc(O)cc2)NC(=O)[C@H]([C@@H](C)CC)NC(=O)[C@H](C(C)C)NC(=O)[C@H]([C@@H](C)O)NC(=O)[C@H](CCCNC(=N)N)NC(=O)[C@H]([C@@H](C)CC)NC(=O)[C@H](Cc2ccc(O)cc2)NC(=O)[C@H](CCC(=O)O)NC(=O)[C@H](CC(C)C)NC(=O)CNC(=O)[C@@H](N)CSSC[C@H](N)C(=O)N[C@@H]([C@@H](C)O)C(=O)N[C@@H](CC(=O)O)C(=O)NCC(=O)N[C@@H](CS)C(=O)N[C@H](CO)C(=O)N[C@@H](CCSC)C(=O)N[C@@H](CCCCN)C(=O)N[C@@H](CC(=O)O)C(=O)N[C@@H](CC(C)C)C(=O)N[C@@H](CO)C(=O)N[C@@H](C)C(=O)N[C@@H](CC(C)C)C(=O)N[C@H](C(=O)O)CSSC[C@@H](C(=O)N[C@@H](C)C(=O)NCC(=O)N[C@@H](CO)C(=O)N[C@@H](CCCNC(=N)N)C(=O)N[C@@H](Cc2c[nH]c3ccccc23)C(=O)O)NC1=O | – | 17.8 | 52.5 | 11.2 | – | 589 | – | – | – | – | – | inactive
